Source: PubChem BioAssay AID1963972 (Molecular Pharmacology Branch, DTP, NCI, 2024)

System: 945468-187-T-J2-PDC spheroids viability
Assay: Anticancer human tumor 945468-187-T-J2-PDC patient-derived rectal carcinoma cell line growth inhibition [PI3K]
Conditions: spheroids with HUVEC and MSC; for IC50: curve of first compound; for viability, T/C: stronger effect = lower value
Summary of the method: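 Combination activity was assessed by viability in multicellular tumor spheroids carrying HUVEC and MSC components. Agents were tested with PI3K inhibitors from a Cmax-based top dose (or 10 microM) downward in half-log increments.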

[1] = second compound 0.00316 µM, first compound 0.0316 µM
[2] = second compound 0.00316 µM, first compound 0.1 µM
[3] = second compound 0.01 µM, first compound 0.0316 µM
[4] = second compound 0.01 µM, first compound 0.1 µM
[5] = second compound 0.0316 µM, first compound 0.0316 µM
[6] = second compound 0.0316 µM, first compound 0.1 µM
[7] = second compound 0.1 µM, first compound 0.0316 µM
[8] = second compound 0.1 µM, first compound 0.1 µM
[9] = second compound 0.316 µM, first compound 0.0316 µM
[10] = second compound 0.316 µM, first compound 0.1 µM
[11] = second compound 1 µM, first compound 0.0316 µM
[12] = second compound 1 µM, first compound 0.1 µM
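Note: spheroids exposed to compounds for seven days before reading.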

## CC(C)n1nc(-c2ccc3oc(N)nc3c2)c2c(N)ncnc21 + COc1c(OCCCN2CCOCC2)ccc2c3n(c(=NC(=O)c4cnc(N)nc4)nc12)CCN3
Second compound 0.00316 µM
  IC50: > 100 nM
Second compound 0.01 µM
  IC50: > 100 nM
Second compound 0.0316 µM
  IC50: 60.5 nM
Second compound 0.1 µM
  IC50: 20.4 nM
Second compound 0.316 µM
  IC50: < 0.316 nM
Second compound 1 µM
  IC50: < 0.316 nM
Second compound 0.00316 µM, first compound 0.000316 µM
  viability, T/C: 82.4%
Second compound 0.00316 µM, first compound 0.001 µM
  viability, T/C: 83.8%
Second compound 0.00316 µM, first compound 0.00316 µM
  viability, T/C: 81.7%
Second compound 0.00316 µM, first compound 0.01 µM
  viability, T/C: 84.3%
[1]
  viability, T/C: 73.6%
[2]
  viability, T/C: 61.1%
Second compound 0.01 µM, first compound 0.000316 µM
  viability, T/C: 120%
Second compound 0.01 µM, first compound 0.001 µM
  viability, T/C: 109%
Second compound 0.01 µM, first compound 0.00316 µM
  viability, T/C: 80.7%
Second compound 0.01 µM, first compound 0.01 µM
  viability, T/C: 82.7%
[3]
  viability, T/C: 66.6%
[4]
  viability, T/C: 66.1%
Second compound 0.0316 µM, first compound 0.000316 µM
  viability, T/C: 77.1%
Second compound 0.0316 µM, first compound 0.001 µM
  viability, T/C: 85.8%
Second compound 0.0316 µM, first compound 0.00316 µM
  viability, T/C: 116%
Second compound 0.0316 µM, first compound 0.01 µM
  viability, T/C: 86%
[5]
  viability, T/C: 79.1%
[6]
  viability, T/C: 27.4%
Second compound 0.1 µM, first compound 0.000316 µM
  viability, T/C: 76.2%
Second compound 0.1 µM, first compound 0.001 µM
  viability, T/C: 76.2%
Second compound 0.1 µM, first compound 0.00316 µM
  viability, T/C: 61.5%
Second compound 0.1 µM, first compound 0.01 µM
  viability, T/C: 75.6%
[7]
  viability, T/C: 36.2%
[8]
  viability, T/C: 16.7%
Second compound 0.316 µM, first compound 0.000316 µM
  viability, T/C: 36.5%
Second compound 0.316 µM, first compound 0.001 µM
  viability, T/C: 31.8%
Second compound 0.316 µM, first compound 0.00316 µM
  viability, T/C: 26.5%
Second compound 0.316 µM, first compound 0.01 µM
  viability, T/C: 25.4%
[9]
  viability, T/C: 17.6%
[10]
  viability, T/C: 10.9%
Second compound 1 µM, first compound 0.000316 µM
  viability, T/C: 20.2%
Second compound 1 µM, first compound 0.001 µM
  viability, T/C: 22.1%
Second compound 1 µM, first compound 0.00316 µM
  viability, T/C: 17.7%
Second compound 1 µM, first compound 0.01 µM
  viability, T/C: 13.8%
[11]
  viability, T/C: 12.1%
[12]
  viability, T/C: 11.3%

## CCCS(=O)(=O)Nc1ccc(F)c(C(=O)c2c[nH]c3ncc(-c4ccc(Cl)cc4)cc23)c1F + COc1c(OCCCN2CCOCC2)ccc2c3n(c(=NC(=O)c4cnc(N)nc4)nc12)CCN3
Second compound 0.00316 µM
  IC50: 5780 nM
Second compound 0.01 µM
  IC50: 6430 nM
Second compound 0.0316 µM
  IC50: 5580 nM
Second compound 0.1 µM
  IC50: 6050 nM
Second compound 0.316 µM
  IC50: < 31.6 nM
Second compound 1 µM
  IC50: < 31.6 nM
[1]
  viability, T/C: 95.3%
[2]
  viability, T/C: 106%
Second compound 0.00316 µM, first compound 0.316 µM
  viability, T/C: 111%
Second compound 0.00316 µM, first compound 1 µM
  viability, T/C: 116%
Second compound 0.00316 µM, first compound 3.16 µM
  viability, T/C: 89.2%
Second compound 0.00316 µM, first compound 10 µM
  viability, T/C: 14.6%
[3]
  viability, T/C: 109%
[4]
  viability, T/C: 82%
Second compound 0.01 µM, first compound 0.316 µM
  viability, T/C: 79.8%
Second compound 0.01 µM, first compound 1 µM
  viability, T/C: 92.5%
Second compound 0.01 µM, first compound 3.16 µM
  viability, T/C: 105%
Second compound 0.01 µM, first compound 10 µM
  viability, T/C: 22.9%
[5]
  viability, T/C: 100%
[6]
  viability, T/C: 91.4%
Second compound 0.0316 µM, first compound 0.316 µM
  viability, T/C: 90.2%
Second compound 0.0316 µM, first compound 1 µM
  viability, T/C: 103%
Second compound 0.0316 µM, first compound 3.16 µM
  viability, T/C: 75.2%
Second compound 0.0316 µM, first compound 10 µM
  viability, T/C: 24.2%
[7]
  viability, T/C: 73.1%
[8]
  viability, T/C: 90.5%
Second compound 0.1 µM, first compound 0.316 µM
  viability, T/C: 77.7%
Second compound 0.1 µM, first compound 1 µM
  viability, T/C: 77.6%
Second compound 0.1 µM, first compound 3.16 µM
  viability, T/C: 77.2%
Second compound 0.1 µM, first compound 10 µM
  viability, T/C: 29%
[9]
  viability, T/C: 38.7%
[10]
  viability, T/C: 37%
Second compound 0.316 µM, first compound 0.316 µM
  viability, T/C: 36.9%
Second compound 0.316 µM, first compound 1 µM
  viability, T/C: 34%
Second compound 0.316 µM, first compound 3.16 µM
  viability, T/C: 35.3%
Second compound 0.316 µM, first compound 10 µM
  viability, T/C: 21.5%
[11]
  viability, T/C: 21.4%
[12]
  viability, T/C: 22.6%
Second compound 1 µM, first compound 0.316 µM
  viability, T/C: 21.9%
Second compound 1 µM, first compound 1 µM
  viability, T/C: 19.5%
Second compound 1 µM, first compound 3.16 µM
  viability, T/C: 25.7%
Second compound 1 µM, first compound 10 µM
  viability, T/C: 15.6%
